The results in this text go back to patent US20230173086A1, “PEPTIDE CONJUGATES AND THERAPEUTIC AGENTS HAVING IMPROVED PHARMACOLOGICAL AND PHARMACOKINETIC PROPERTIES” (Resolute Bio, Inc., priority 2021, published 2023).

Like-named read-outs stand apart in the source and are kept apart here.

The test system of the test is RBCs. The protocol: RBC binding ranked by MESF (molecules of equivalent soluble fluorescence), or intensity of fluorescent signal measured when RBCs were incubated with a given concentration of peptide.
High=MESF value>1000 fluorescent units
Medium=MESF Value from 300 to 1000 fluorescent units
Low=MESF Value from 15 to 300 fluorescent units

Where [1] appears, read: Table 3, structurally-diverse all-D-peptides.

In the case of “H-phe-trp-ala-pro-trp-ala-met-met-tyr-lys-Gly-Gly-Gly-lys(Biotin)-NH2 [Peptide 1d]”, the “Classification of RBC binding properties (MESF)” value (“Classification” below) (Table 1, D-Ala scanning of 1a) is reported as “Medium (MESF Value from 300 to 1000 fluorescent units)”.
Turning to “H-phe-trp-tyr-pro-trp-ala-met-met-tyr-lys-Gly-Gly-Gly-lys(Biotin)-NH2 [Peptide 2j]”, under “Table 2, 1a analogs”, the “Classification” value was “Low (MESF Value from 15 to 300 fluorescent units)”.
Regarding “H-phe-trp-his-pro-trp-ala-met-met-tyr-lys-Gly-Gly-Gly-(H-phe-trp-his-pro-trp-ala-met-met-tyr-lys-Gly-Gly-Gly)-lys-Gly-Gly-lys(Biotin)-NH2 [Peptide 2d]”, the “Classification” value (Table 2, 1a analogs) was “High (MESF value>1000 fluorescent units)”.
With “H-phe-trp-his-pro-trp-ala-met-ala-tyr-lys-Gly-Gly-Gly-lys(Biotin)-NH2 [Peptide 1h]”, the “Classification” value (Table 1, D-Ala scanning of 1a) was “Low (MESF Value from 15 to 300 fluorescent units)”.
“H-met-phe-his-pro-phe-ala-phe-met-tyr-lys-Gly-Gly-Gly-lys(Biotin)-NH2 [Peptide 3o]”: the “Classification” value under setting [1] is given as “Medium (MESF Value from 300 to 1000 fluorescent units)”.
In the case of “H-leu-phe-his-pro-trp-pro-ala-phe-pro-lys-Gly-Gly-Gly-lys(Biotin)-NH2 [Peptide 3l]”, the “Classification” value under setting [1] is recorded as “High (MESF value>1000 fluorescent units)”.
The same measure, in the same setting: under “H-tyr-trp-val-pro-met-trp-val-his-val-lys-Gly-Gly-Gly-lys(Biotin)-NH2 [Peptide 3w]” stands “Low (MESF Value from 15 to 300 fluorescent units)”.
With “H-phe-trp-his-pro-trp-ala-met-met-tyr-lys-Gly-Gly-Gly-lys(Biotin)-NH2 [Peptide 1a]”, the “Classification” value reads like this: (Table 1, D-Ala scanning of 1a) “High (MESF value>1000 fluorescent units)”; (Table 2, 1a analogs) “High (MESF value>1000 fluorescent units)”; under setting [1], “High (MESF value>1000 fluorescent units)”.
Take “H-phe-tyr-tyr-pro-trp-pro-val-thr-tyr-lys-Gly-Gly-Gly-lys(Biotin)-NH2 [Peptide 3k]”: under setting [1], the “Classification” value is given as “Does Not Bind (MESF Value below 15 fluorescent units)”.
Take “H-ser-Gly-val-asp-thr-tyr-leu-thr-his-lys-Gly-Gly-Gly-lys(Biotin)-NH2 [Peptide 3r]”: the “Classification” value under setting [1] is “Medium (MESF Value from 300 to 1000 fluorescent units)”.
In the case of “H-phe-trp-his-pro-trp-ala-leu-leu-tyr-lys-Gly-Gly-Gly-lys(Biotin)-NH2 [Peptide 2c]”, the “Classification” value (Table 2, 1a analogs) was “Does Not Bind (MESF Value below 15 fluorescent units)”.
For “H-phe-trp-his-pro-trp-ala-ala-ala-tyr-lys-Gly-Gly-Gly-lys(Biotin)-NH2 [Peptide 2b]”, the “Classification” value (Table 2, 1a analogs) is “High (MESF value>1000 fluorescent units)”.
Take “H-phe-phe-his-val-pro-val-phe-ser-val-lys-Gly-Gly-Gly-lys(Biotin)-NH2 [Peptide 3i]”: the “Classification” value under setting [1] is “Medium (MESF Value from 300 to 1000 fluorescent units)”.
For “H-phe-trp-his-pro-ala-ala-met-met-tyr-lys-Gly-Gly-Gly-lys(Biotin)-NH2 [Peptide 1f]”, the “Classification” value (Table 1, D-Ala scanning of 1a) was “Does Not Bind (MESF Value below 15 fluorescent units)”.
With “H-trp-val-pro-Gly-phe-trp-tyr-his-tyr-lys-Gly-Gly-Gly-lys(Biotin)-NH2 [Peptide 3t]”, under setting [1], the “Classification” value is on record as “Low (MESF Value from 15 to 300 fluorescent units)”.
The same measure, in the same setting: under “H-leu-trp-his-pro-trp-ala-met-pro-glu-lys-Gly-Gly-Gly-lys(Biotin)-NH2 [Peptide 3m]” stands “Low (MESF Value from 15 to 300 fluorescent units)”.
On to “H-phe-trp-his-pro-trp-ala-met-met-tyr-ala-Gly-Gly-Gly-lys(Biotin)-NH2 [Peptide 1j]”, for which the “Classification” value (Table 1, D-Ala scanning of 1a) is given as “High (MESF value>1000 fluorescent units)”.
Same read-out and setting: under “H-phe-trp-his-ala-trp-ala-met-met-tyr-lys-Gly-Gly-Gly-lys(Biotin)-NH2 [Peptide 1e]” stands “High (MESF value>1000 fluorescent units)”.
Turning to “H-phe-phe-his-pro-trp-ser-trp-thr-ser-lys-Gly-Gly-Gly-lys(Biotin)-NH2 [Peptide 3a]”, the “Classification” value under setting [1] is listed as “High (MESF value>1000 fluorescent units)”.
The same measure, in the same setting: the value for “H-phe-trp-tyr-val-his-thr-thr-Gly-trp-lys-Gly-Gly-Gly-lys(Biotin)-NH2 [Peptide 3j]” was “Does Not Bind (MESF Value below 15 fluorescent units)”.
In the case of “H-leu-trp-his-pro-tyr-leu-phe-leu-trp-lys-Gly-Gly-Gly-lys(Biotin)-NH2 [Peptide 3f]”, the “Classification” value under setting [1] is “Does Not Bind (MESF Value below 15 fluorescent units)”.
In the case of “H-phe-trp-his-pro-trp-ala-nle-nle-tyr-lys-Gly-Gly-Gly-lys(Biotin)-NH2 [Peptide 2a]”, the “Classification” value (Table 2, 1a analogs) was “Medium (MESF Value from 300 to 1000 fluorescent units)”.
Turning to “H-phe-trp-his-pro-trp-ala-met-met-ala-lys-Gly-Gly-Gly-lys(Biotin)-NH2 [Peptide 1i]”, the “Classification” value (Table 1, D-Ala scanning of 1a) is on record as “Low (MESF Value from 15 to 300 fluorescent units)”.
As to “H-phe-trp-his-pro-trp-ala-met-met-tyr-lys-Gly-Gly-Gly-cys(trt)-Gly-lys(Biotin)-NH2 [Peptide 2h]”, where the note is “Table 2, 1a analogs”, the “Classification” value is listed as “Does Not Bind (MESF Value below 15 fluorescent units)”.
Same read-out and setting: the value for “H-phe-trp-his-L-Pro-trp-ala-met-met-tyr-lys-Gly-Gly-Gly-lys(Biotin)-NH2 [Peptide 2l]” was “Low (MESF Value from 15 to 300 fluorescent units)”; that for “H-phe-trp-his-pro-trp-ala-met-met-tyr-lys-Gly-Gly-Gly-lys(C18diacid)-lys(Biotin)-NH2 [Peptide 2e]” was “Medium (MESF Value from 300 to 1000 fluorescent units)”.
For “H-leu-trp-ser-pro-val-phe-phe-phe-pro-lys-Gly-Gly-Gly-lys(Biotin)-NH2 [Peptide 3n]”, the “Classification” value under setting [1] is given as “Does Not Bind (MESF Value below 15 fluorescent units)”.
For the substance “H-phe-trp-his-NMeGly-trp-ala-met-met-tyr-lys-Gly-Gly-Gly-lys(Biotin)-NH2 [Peptide 2k]”, the “Classification” value (Table 2, 1a analogs) is “Low (MESF Value from 15 to 300 fluorescent units)”.
Consider “H-val-phe-his-pro-phe-trp-Gly-tyr-phe-lys-Gly-Gly-Gly-lys(Biotin)-NH2 [Peptide 3s]”, for which, under setting [1], the “Classification” value is listed as “Does Not Bind (MESF Value below 15 fluorescent units)”.
With “H-phe-trp-his-αMepro-trp-ala-met-met-tyr-lys-Gly-Gly-Gly-lys(Biotin)-NH2 [Peptide 2m]”, the “Classification” value (Table 2, 1a analogs) is “Does Not Bind (MESF Value below 15 fluorescent units)”.
Consider “H-phe-trp-ser-pro-trp-ala-met-met-tyr-lys-Gly-Gly-Gly-lys(Biotin)-NH2 [Peptide 2i]”, for which the “Classification” value (Table 2, 1a analogs) is “Low (MESF Value from 15 to 300 fluorescent units)”.
In the case of “H-leu-his-his-pro-trp-pro-tyr-phe-tyr-lys-Gly-Gly-Gly-lys(Biotin)-NH2 [Peptide 3e]”, the “Classification” value under setting [1] is listed as “Low (MESF Value from 15 to 300 fluorescent units)”.
